Here are results for nine molecules from ChEMBL document CHEMBL4819069, “Discovery of multifunctional anti-Alzheimer's agents with a unique mechanism of action including inhibition of the enzyme butyrylcholinesterase and γ-aminobutyric acid transporters” (Eur J Med Chem, 2021).

Where only a bound is given, the exact number is not on record here.

Assay [1] has as its target Acetylcholinesterase (Electrophorus electricus) (UniProt O42275). Briefly: Inhibition of electric eel AChE at 10 uM using acetylthiocholine as substrate preincubated for 5 mins followed by substrate addition and measured after 5 mins by Ellman's method relative to control. As to conditions: time 10.0 min.
Assay [2] addresses T1, GABA transporter 4 (Mus musculus) (UniProt P31650).
T1 sequence (whole entry): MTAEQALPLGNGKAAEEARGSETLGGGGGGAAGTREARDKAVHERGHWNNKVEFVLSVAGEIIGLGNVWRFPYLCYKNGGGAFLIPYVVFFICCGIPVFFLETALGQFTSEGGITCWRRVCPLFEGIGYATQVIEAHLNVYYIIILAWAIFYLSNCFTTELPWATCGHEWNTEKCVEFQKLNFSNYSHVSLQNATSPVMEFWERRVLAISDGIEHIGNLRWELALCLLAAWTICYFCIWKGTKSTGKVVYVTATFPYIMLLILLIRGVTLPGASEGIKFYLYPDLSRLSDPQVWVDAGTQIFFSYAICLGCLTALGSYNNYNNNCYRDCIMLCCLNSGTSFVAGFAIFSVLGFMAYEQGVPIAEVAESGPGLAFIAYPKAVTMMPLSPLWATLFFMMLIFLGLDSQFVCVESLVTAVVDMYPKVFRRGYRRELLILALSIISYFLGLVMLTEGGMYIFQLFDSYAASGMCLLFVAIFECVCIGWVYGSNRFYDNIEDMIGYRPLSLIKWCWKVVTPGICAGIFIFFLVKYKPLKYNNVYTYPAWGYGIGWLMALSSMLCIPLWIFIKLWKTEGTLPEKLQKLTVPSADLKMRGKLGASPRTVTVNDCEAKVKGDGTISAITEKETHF
Briefly: Inhibition of mouse GAT4 expressed in HEK293 cell line assessed as reduction in [3H]GABA uptake at 100 uM incubated for 10 mins relative to control. It counts as cell-based.

Assay [3] has as its target T1, GABA transporter 4 (Mus musculus). In words: Inhibition of mouse GAT3 expressed in HEK293 cell line assessed as reduction in [3H]GABA uptake at 100 uM incubated for 10 mins relative to control. It counts as cell-based.
Assay [4] has as its target Sodium- and chloride-dependent GABA transporter 1 (Mus musculus) (UniProt P31648). Briefly: Inhibition of NO711 binding to mouse GAT1 expressed in HEK cell membranes at 100 uM incubated for 40 mins in presence of NO711 by LC-ESI-MS/MS analysis relative to control. The settings on record: Membrane.
Assay [5] shares this target. In words: Inhibition of mouse GAT1 expressed in HEK293 cell line assessed as reduction in [3H]GABA uptake at 100 uM incubated for 10 mins relative to control. The format is cell-based.
Assay [6] deals with T2, Beta-secretase 1 (Homo sapiens, UniProt P56817). As to conditions: dose 50.0 µM, time 60.0 min.
Assay [7] deals with Cholinesterase (Homo sapiens, UniProt P06276). In words: Inhibition of human BuchE at 1 uM using butyrylthiocholine as substrate preincubated for 5 mins followed by substrate addition and measured after 5 mins by Ellman's method relative to control. The settings on record: time 10.0 min. On the technique in general: Ellman's reagent forms a yellow product with free thiols.
In assay [8] the target is Cholinesterase (Equus caballus, UniProt P81908).
Description: Inhibition of equine serum BuChE using butyrylthiocholine as substrate preincubated for 5 mins followed by substrate addition and measured after 5 mins by Ellman's method
In assay [9] the target is Amyloid-beta precursor protein (Homo sapiens) (UniProt P05067). In words: Inhibition of HFIP-pretreated amyloid beta (1 to 42) (unknown origin) aggregation at 10 uM after 36 to 48 hrs by thioflavin-T fluorescence assay relative to control. The settings on record: time 36-48 hrs.
In assay [10] the target is T2, Beta-secretase 1.
For assay [11], the target named is Cholinesterase (Equus caballus) (UniProt P81908). In words: Inhibition of equine serum BuChE at 10 uM using butyrylthiocholine as substrate preincubated for 5 mins followed by substrate addition and measured after 5 mins by Ellman's method relative to control. The settings on record: time 10.0 min.
Assay [12] has as its target T3, GABA transporter 3 (Mus musculus) (UniProt P31649).
T3 sequence (whole entry): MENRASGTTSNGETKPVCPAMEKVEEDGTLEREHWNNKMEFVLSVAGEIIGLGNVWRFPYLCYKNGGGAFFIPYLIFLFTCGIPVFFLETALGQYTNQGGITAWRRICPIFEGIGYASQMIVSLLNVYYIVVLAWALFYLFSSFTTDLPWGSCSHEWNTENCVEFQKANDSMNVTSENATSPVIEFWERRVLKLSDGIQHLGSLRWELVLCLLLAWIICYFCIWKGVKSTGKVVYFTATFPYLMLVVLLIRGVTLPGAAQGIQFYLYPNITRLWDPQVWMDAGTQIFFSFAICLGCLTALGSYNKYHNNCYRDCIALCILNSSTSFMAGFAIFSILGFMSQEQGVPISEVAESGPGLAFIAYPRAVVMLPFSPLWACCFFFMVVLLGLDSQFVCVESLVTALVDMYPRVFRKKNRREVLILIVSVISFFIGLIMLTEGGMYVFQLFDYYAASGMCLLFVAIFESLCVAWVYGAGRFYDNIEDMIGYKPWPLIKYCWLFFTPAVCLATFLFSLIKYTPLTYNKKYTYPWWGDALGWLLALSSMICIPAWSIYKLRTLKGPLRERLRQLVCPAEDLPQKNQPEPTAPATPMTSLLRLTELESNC
In words: Inhibition of mouse GAT2 expressed in HEK293 cell line assessed as reduction in [3H]GABA uptake at 100 uM incubated for 10 mins relative to control. It counts as cell-based.

Assay [13] addresses T4, GABA transporter 4 (Mus musculus, UniProt P31650).
T4 sequence (P31650 whole entry): T1 sequence (whole entry)
In words: Inhibition of mouse GAT4 expressed in HEK293 cell line assessed as reduction in [3H]GABA uptake incubated for 10 mins. It counts as cell-based.

Assay [14] addresses Sodium- and chloride-dependent GABA transporter 1 (Mus musculus, UniProt P31648). In words: Inhibition of mouse GAT1 expressed in HEK293 cell line assessed as reduction in [3H]GABA uptake incubated for 10 mins. It counts as cell-based.

Sequence of Amyloid-beta precursor protein (Homo sapiens) (P05067 whole entry): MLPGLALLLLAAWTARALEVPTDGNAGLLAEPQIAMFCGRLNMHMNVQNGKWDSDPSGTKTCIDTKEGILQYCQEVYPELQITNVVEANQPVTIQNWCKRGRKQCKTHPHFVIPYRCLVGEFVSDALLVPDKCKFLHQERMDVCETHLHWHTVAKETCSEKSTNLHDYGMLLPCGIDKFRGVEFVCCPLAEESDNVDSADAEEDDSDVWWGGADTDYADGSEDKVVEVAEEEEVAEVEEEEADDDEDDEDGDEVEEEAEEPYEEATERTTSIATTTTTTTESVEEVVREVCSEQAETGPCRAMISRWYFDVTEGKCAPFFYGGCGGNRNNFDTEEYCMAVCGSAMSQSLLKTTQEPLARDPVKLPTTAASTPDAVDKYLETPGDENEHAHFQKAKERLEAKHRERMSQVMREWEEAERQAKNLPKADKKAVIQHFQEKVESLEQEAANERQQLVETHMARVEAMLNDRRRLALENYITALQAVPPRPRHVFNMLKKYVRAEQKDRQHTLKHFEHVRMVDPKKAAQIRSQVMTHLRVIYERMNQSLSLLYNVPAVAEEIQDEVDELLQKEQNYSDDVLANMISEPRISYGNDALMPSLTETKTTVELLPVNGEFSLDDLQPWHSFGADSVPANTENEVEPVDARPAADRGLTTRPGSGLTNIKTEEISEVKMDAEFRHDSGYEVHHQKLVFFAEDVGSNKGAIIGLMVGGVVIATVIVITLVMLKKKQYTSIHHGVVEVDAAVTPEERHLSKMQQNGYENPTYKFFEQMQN
Sequence of Acetylcholinesterase (Electrophorus electricus) (O42275 24-633 limits assumed): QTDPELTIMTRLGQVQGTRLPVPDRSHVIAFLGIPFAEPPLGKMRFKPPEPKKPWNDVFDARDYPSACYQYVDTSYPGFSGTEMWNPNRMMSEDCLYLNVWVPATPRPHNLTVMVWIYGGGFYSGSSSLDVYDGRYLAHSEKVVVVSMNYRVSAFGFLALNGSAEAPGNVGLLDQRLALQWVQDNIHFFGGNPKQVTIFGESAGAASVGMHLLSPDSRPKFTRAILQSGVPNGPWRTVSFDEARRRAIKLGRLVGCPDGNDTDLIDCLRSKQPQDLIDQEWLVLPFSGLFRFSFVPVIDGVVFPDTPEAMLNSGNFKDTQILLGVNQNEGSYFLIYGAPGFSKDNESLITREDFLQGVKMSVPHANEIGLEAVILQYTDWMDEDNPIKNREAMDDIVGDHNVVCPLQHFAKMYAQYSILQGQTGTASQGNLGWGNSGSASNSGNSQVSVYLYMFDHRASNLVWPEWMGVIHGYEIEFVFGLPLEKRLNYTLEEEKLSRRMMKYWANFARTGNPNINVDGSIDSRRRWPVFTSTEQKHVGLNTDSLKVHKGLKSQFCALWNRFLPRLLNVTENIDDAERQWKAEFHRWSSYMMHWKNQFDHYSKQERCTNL
T2 sequence (P56817 whole entry): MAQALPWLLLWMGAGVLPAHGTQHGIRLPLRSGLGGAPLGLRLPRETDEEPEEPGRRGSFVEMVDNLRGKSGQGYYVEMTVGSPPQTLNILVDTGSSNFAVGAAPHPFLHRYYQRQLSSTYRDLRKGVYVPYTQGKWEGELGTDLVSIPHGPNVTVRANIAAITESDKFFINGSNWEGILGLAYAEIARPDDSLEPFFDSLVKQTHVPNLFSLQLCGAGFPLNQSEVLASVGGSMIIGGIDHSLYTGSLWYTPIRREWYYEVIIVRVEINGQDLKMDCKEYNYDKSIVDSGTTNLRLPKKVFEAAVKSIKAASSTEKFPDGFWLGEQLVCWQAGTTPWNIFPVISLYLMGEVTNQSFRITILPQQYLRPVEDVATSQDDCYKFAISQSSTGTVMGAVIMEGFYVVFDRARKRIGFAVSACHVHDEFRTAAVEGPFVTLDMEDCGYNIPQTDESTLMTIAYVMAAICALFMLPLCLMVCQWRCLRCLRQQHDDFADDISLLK
Sequence of Cholinesterase (Equus caballus, UniProt P81908) (P81908 whole entry): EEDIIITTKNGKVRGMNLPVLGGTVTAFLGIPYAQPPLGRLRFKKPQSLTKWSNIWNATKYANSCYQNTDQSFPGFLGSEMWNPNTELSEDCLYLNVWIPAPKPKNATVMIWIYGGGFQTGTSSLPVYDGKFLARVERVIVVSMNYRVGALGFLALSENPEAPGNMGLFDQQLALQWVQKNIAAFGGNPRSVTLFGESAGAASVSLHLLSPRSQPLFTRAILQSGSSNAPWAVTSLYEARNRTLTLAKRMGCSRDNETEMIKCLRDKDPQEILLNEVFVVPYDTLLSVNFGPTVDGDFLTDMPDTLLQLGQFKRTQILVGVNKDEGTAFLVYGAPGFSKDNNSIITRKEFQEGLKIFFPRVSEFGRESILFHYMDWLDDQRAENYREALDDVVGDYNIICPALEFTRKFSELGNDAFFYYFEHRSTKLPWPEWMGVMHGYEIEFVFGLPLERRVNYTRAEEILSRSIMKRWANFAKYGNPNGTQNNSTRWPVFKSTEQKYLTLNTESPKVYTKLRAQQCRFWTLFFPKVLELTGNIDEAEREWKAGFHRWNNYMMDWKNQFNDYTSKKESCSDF
Sequence of Cholinesterase (Equus caballus) (P81908 whole entry): as above
Sequence of Cholinesterase (Homo sapiens, UniProt P06276) (P06276 whole entry): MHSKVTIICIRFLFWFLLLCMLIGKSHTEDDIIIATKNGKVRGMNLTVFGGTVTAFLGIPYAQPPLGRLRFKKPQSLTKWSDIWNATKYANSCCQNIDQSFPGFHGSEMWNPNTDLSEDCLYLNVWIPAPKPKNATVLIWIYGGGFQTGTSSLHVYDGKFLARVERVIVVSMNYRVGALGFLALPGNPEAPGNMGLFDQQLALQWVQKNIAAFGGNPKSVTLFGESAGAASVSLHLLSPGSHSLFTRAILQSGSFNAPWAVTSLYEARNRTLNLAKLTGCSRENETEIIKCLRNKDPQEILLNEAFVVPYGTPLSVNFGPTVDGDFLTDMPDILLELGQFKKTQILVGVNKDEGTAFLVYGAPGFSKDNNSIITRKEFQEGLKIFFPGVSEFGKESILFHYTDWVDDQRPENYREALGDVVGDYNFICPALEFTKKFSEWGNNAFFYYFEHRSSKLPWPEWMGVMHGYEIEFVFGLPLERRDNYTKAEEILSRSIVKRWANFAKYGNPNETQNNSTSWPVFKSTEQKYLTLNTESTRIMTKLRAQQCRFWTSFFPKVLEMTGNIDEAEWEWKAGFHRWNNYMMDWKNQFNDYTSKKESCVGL

For `C[C@H](NC[C@@H](O)[C@H](Cc1ccccc1)NC(=O)C(c1ccccc1)c1ccccc1)c1ccccc1`, the inhibition is less than 10% in assay [1]; 79% in [2]; 84% in assay [3]; 81% in assay [4]; 77% in [5]; 61.7% in assay [6]. Besides, the inhibition in assay [7] turned out to be 14.5%; in assay [9] it was 20.5%. In assay [8], this molecule displayed a 50% inhibitory concentration (IC50) of 1.82 µM.

As for `O=C(CC(c1ccccc1)c1ccccc1)N[C@@H](Cc1ccccc1)[C@@H](O)CNCc1cccc(C(F)(F)F)c1`, the half-inhibitory concentration (IC50) in [10] was 8.3 µM. Moreover, the inhibition in assay [11] was 29.5%; in assay [1], 36.8%; in assay [7] it was less than 10%; in assay [9], 20.5%.

For `O=C(CC(c1ccccc1)c1ccccc1)N[C@@H](Cc1ccccc1)[C@H](O)CNCC1CC1`, the inhibition was 60% in [12]; less than 10% in assay [1]; 51% in [3]; 83% in assay [4]; less than 10% in assay [6]; 41.1% in assay [7]. In addition, in assay [9], the inhibition is 20.5%. Further, the IC50 came out at 35.5 µM in [13], 39.8 µM in assay [14] and 3.23 µM in [8].

Regarding `O=C(CC(c1ccccc1)c1ccccc1)N[C@@H](Cc1ccccc1)[C@@H](O)CNCc1ccccc1`, the inhibition in [12] was 74%; in [1], less than 10%; in [3], 76%; in assay [4] it was 83%; in assay [5], 61%; in assay [7], 67.7%. Besides, in assay [9], the inhibition worked out at 20.5%. In [10], this molecule came in with a half-inhibitory concentration (IC50) of 17.4 µM.

As to `O=C(N[C@@H](Cc1ccccc1)[C@H](O)CNCC(F)(F)F)C(c1ccccc1)c1ccccc1`, the inhibition in assay [12] was 87%; in assay [11], 26.3%; in assay [1], less than 10%; in [2], 102%; in [3], 92%; in assay [4], 100%. Besides, the inhibition in assay [5] was 92%; in [7], less than 10%; in [9] it was 20.5%. The molecule further yielded a 50% inhibitory concentration (IC50) in [10] of 15.4 µM.

Consider `O=C(CC(c1ccccc1)c1ccccc1)N[C@@H](Cc1ccccc1)[C@H](O)CNCC(F)(F)F`, for which the inhibition in assay [11] is 19.2%; in assay [1], less than 10%; in assay [6], 24.4%; in [7], less than 10%; in [9], 20.5%.

On to `O=C(N[C@@H](Cc1ccccc1)[C@H](O)CNCC1CC1)C(c1ccccc1)c1ccccc1`, for which the inhibition in assay [12] was 85%; in assay [1], less than 10%; in assay [3], 54%; in [4] it was 74%; in [5] it was 51%; in [6], 44.4%. The inhibition came out at 12.3% in [7] and 20.5% in [9]. Besides, the IC50 was 74.1 µM in [13] and 3.21 µM in [8].

As to `CC(C)(NC[C@@H](O)[C@H](Cc1ccccc1)NC(=O)C(c1ccccc1)c1ccccc1)c1ccccc1`, the inhibition in [11] is 45.9%; in assay [1], less than 10%; in [6], 76.1%; in assay [7] it was less than 10%; in assay [9] it was 20.5%.

Take `COc1cccc(CNC[C@@H](O)[C@H](Cc2ccccc2)NC(=O)C(c2ccccc2)c2ccccc2)c1`: the inhibition in [12] is 61%; in assay [1], less than 10%; in assay [3], 67%; in [4] it was 85%; in assay [5], 61%; in assay [6], 37%. Moreover, the inhibition is 56.5% in assay [7] and 20.5% in assay [9]. In addition, the results for the IC50 in assay [13] and in assay [8] were 33.1 µM and 1.55 µM, respectively.

Broadly, the inhibition is the drop in the measured response relative to a control, in per cent. Broadly, the IC50 is the concentration at which inhibition is half-maximal.
